Test: Solubility of paclitaxel in olive oil, castor oil and hydrophobic excipients (crystal formation in dried sample)
Assay type: physicochemical
Settings: for solubility of paclitaxel (crystal formation in the dried sample): 0.5 ml paclitaxel chloroform solution (10 mg/ml), volatilized overnight
Protocol: The specific experimental method was as follows. […] The chloroform solution was mixed with 0.5 ml of chloroform, from which 0.5 ml of diluent was taken and two-fold serial dilution was performed by using chloroform. Then 0.5 ml of a chloroform solution of paclitaxel (10 mg/ml) was added to the above-mentioned sample after the two-fold serial dilution, and then left in a hood to be naturally volatilized overnight. Crystal formation in the dried sample was observed and recorded.

CCCCCCCC/C=C\CCCCCCCCNC(=O)CC[C@@H](C)[C@H]1CC[C@H]2[C@@H]3[C@H](OC(=O)CNC(=O)[C@H](CCCCNC(=O)OC(C)(C)C)NC(=O)OCC4c5ccccc5-c5ccccc54)C[C@@H]4C[C@H](OC(=O)CNC(=O)[C@H](CCCCNC(=O)OC(C)(C)C)NC(=O)OCC5c6ccccc6-c6ccccc65)CC[C@]4(C)[C@H]3C[C@H](OC(=O)CNC(=O)[C@H](CCCCNC(=O)OC(C)(C)C)NC(=O)OCC3c4ccccc4-c4ccccc43)[C@]12C [Example 4]
solubility of paclitaxel (crystal formation in the dried sample) (0.98 mg hydrophobic excipient): +
solubility of paclitaxel (crystal formation in the dried sample) (1.95 mg hydrophobic excipient): +
solubility of paclitaxel (crystal formation in the dried sample) (3.90 mg hydrophobic excipient): +
solubility of paclitaxel (crystal formation in the dried sample) (7.81 mg hydrophobic excipient): +/−
solubility of paclitaxel (crystal formation in the dried sample) (15.65 mg hydrophobic excipient): −
solubility of paclitaxel (crystal formation in the dried sample) (31.30 mg hydrophobic excipient): −
solubility of paclitaxel (crystal formation in the dried sample) (62.50 mg hydrophobic excipient): −
solubility of paclitaxel (crystal formation in the dried sample) (125.00 mg hydrophobic excipient): −
solubility of paclitaxel (crystal formation in the dried sample) (250.00 mg hydrophobic excipient): −
solubility of paclitaxel in the excipient, comparison in words (compared with olive oil and castor oil, from Table 1): greater than that in olive oil and castor oil
